How the values were obtained:
[1] = test system: Pyricularia oryzae; experiment: microbe, parasite or virus in culture; assay type: cell-based; conditions: 168 h, read-out: % control compared to the untreated check (radial growth)
[2] = test system: Rhizoctonia solani; experiment: Rhizoctonia solani (rice sheath blight/potato black scurf) in vitro test, radial growth on Potato Dextrose Agar; assay type: cell-based; conditions: 168 h, 300 ppm, seven days, 25° C., read-out: % control compared to the untreated check (radial growth)
[3] = test system: Botrytis cinerea; experiment: Botrytis cinerea (gray mold) in vitro test, radial growth on Potato Dextrose Agar; assay type: cell-based; conditions: 168 h, 300 ppm, seven days, 22° C., read-out: % (control) compared to the untreated check (radial growth)
[4] = test system: Alternaria solani; experiment: Alternaria solani (early blight of tomato/potato) in vitro test, radial growth on Potato Dextrose Agar; assay type: cell-based; conditions: 168 h, 300 ppm, seven days, 25° C., read-out: % control compared to the untreated check (radial growth)
[5] = test system: Colletotrichum capsici; experiment: Colletotrichum capsici (anthracnose) in vitro test, radial growth on Potato Dextrose Agar; assay type: cell-based; conditions: Colletotrichum truncatum, 168 h; 300 ppm; seven days, 25° C.; read-out: % control compared to the untreated check (radial growth)
[6] = test system: Septoria lycopersici; experiment: Septoria lycopersici (leaf spot of tomato) in vitro test, radial growth on Potato Dextrose Agar; assay type: cell-based; conditions: 168 h, seven days, 25° C., read-out: % control compared to the untreated check (radial growth)
[7] = test system: Fusarium culmorum; experiment: Fusarium culmorum (foot rot of cereals) in vitro test, radial growth on Potato Dextrose Agar; assay type: cell-based; conditions: Fusarium culmorum, 168 h, read-out: % control compared to the untreated check (radial growth)
[8] = test system: Fusarium culmorum; experiment: Greenhouse Fusarium culmorum test in wheat, preventive; assay type: in vivo; conditions: 24 h, read-out: Efficacy (% control), disease severity vs untreated check
Procedure: Compounds were dissolved in 2% DMSO/Acetone & then mixed with water to calibrated spray volume of 50 ml. This 50 ml spray solution was poured into the spray bottles for further applications.
To test the preventive activity of compounds, healthy young wheat plants raised in the greenhouse were sprayed with active compound preparation at the stated application rates inside the spray cabinets using hallowcone nozzles. One day after treatment, the plants were inoculated with spore suspension (2% Malt) containing 2×10^6 Fusarium culmorum inoculum. The inoculated plants were then kept in greenhouse chamber at 24° C. temperature and 80-90% relative humidity for disease expression.
A visual assessment of compound's performance was carried by rating the disease severity (0-100% scale) on treated plants on 3, 7, 10 and 15 days after application. Efficacy (% control) of the compounds was calculated by comparing the disease rating in the treatment with untreated control. The sprayed plants were also assessed for compound's phytotoxic effects by recording symptoms like necrosis, chlorosis and stunting.

[9] = test system: Botrytis cinera; experiment: Greenhouse Botrytis cinera test in tomato, preventive; assay type: in vivo; conditions: 24 h, plants sprayed one day before inoculation, read-out: Efficacy (% control), disease severity vs untreated check
[10] = test system: Alternaria solani; experiment: Greenhouse Alternaria solani test in tomato, preventive; assay type: in vivo; conditions: 24 h, tomato plants sprayed one day before inoculation, read-out: Efficacy (% control), disease severity vs untreated check
Procedure: Compounds were dissolved in 2% DMSO/Acetone & then mixed with water to calibrated spray volume of 50 ml. This 50 ml spray solution was poured into the spray bottles for further applications. To test the preventive activity of compounds, healthy young Tomato plants raised in the greenhouse were sprayed with active compound preparation at the stated application rates inside the spray cabinets using hallowcone nozzles. One day after treatment, the plants were inoculated with spore suspension (2% Malt) containing 0.24×10^6 Alternaria solani inoculum. The inoculated plants were then kept in greenhouse chamber at 22-24° C. temperature and 90-95% relative humidity for disease expression. […] Efficacy (% control) of the compounds was calculated by comparing the disease rating in the treatment with untreated control. The sprayed plants were also assessed for compound's phytotoxic effects by recording symptoms like necrosis, chlorosis and stunting.

Row | Structure (SMILES) | inhibition of growth at 300 ppm [1] | inhibition of growth at 300 ppm [2] | inhibition of growth at 300 ppm [3] | inhibition of growth at 300 ppm [4] | inhibition of growth at 300 ppm [5] | inhibition of growth at 300 ppm [6] | inhibition of growth at 300 ppm [7] | pest or weed control at 500 ppm [8] | pest or weed control at 500 ppm [9] | pest or weed control at 500 ppm [10]
1 | CCN(C)C=Nc1cc(C)c(Cc2ccc(Cl)cc2)cc1C [Compound 7, N′-(4-(4-chlorobenzyl)-2,5-dimethylphenyl)-N-ethyl-N-methylformimidamide] | > 75% | > 80% | > 80% | > 75% | > 80% | > 70% | 75% | 70 to 100% | 70 to 100% | 
2 | CCN(C)C=Nc1cc(C)c(Cc2ccc(SC)cc2)cc1C [Compound 8, N′-(2,5-dimethyl-4-(4-(methylthio)benzyl)phenyl)-N-ethyl-N-methylformimidamide] | > 75% | > 80% | > 80% | > 75% | > 80% | > 70% |  |  |  | 70 to 100%
3 | CCN(C)C=Nc1cc(C)c(Cc2ccc(S(C)(=O)=O)cc2)cc1C [Compound 12, N′-(2,5-dimethyl-4-(4-(methylsulfonyl)benzyl)phenyl)-N-ethyl-N-methylformimidamide] | > 75% |  |  | > 75% |  |  |  | 70 to 100% | 70 to 100% | 
4 | CCN(C)C=Nc1cc(C)c(Cc2cccc(Br)c2)cc1Cl [Compound 13, N′-(4-(3-bromobenzyl)-2-chloro-5-methylphenyl)-N-ethyl-N-methylformimidamide] | > 75% | > 80% | > 80% | > 75% | > 80% | > 70% |  | 70 to 100% | 70 to 100% | 
5 | CCN(C)C=Nc1cc(C)c(Cc2ccccc2Cl)cc1Cl [Compound 17, N′-(2-chloro-4-(2-chlorobenzyl)-5-methylphenyl)-N-ethyl-N-methylformimidamide] | > 75% | > 80% | > 80% | > 75% | > 80% | > 70% | 75% | 70 to 100% | 70 to 100% | 
6 | CCN(C)C=Nc1cc(C)c(Cc2ccccc2Cl)cc1C [Compound 18, N′-(4-(2-chlorobenzyl)-2,5-dimethylphenyl)-N-ethyl-N-methylformimidamide] | > 75% | > 80% | > 80% | > 75% | > 80% | > 70% | 75% | 70 to 100% | 70 to 100% | 
7 | CCN(C)C=Nc1cc(C)c(Cc2ccc(Br)cc2)cc1Cl [Compound 22, N′-(4-(4-bromobenzyl)-2-chloro-5-methylphenyl)-N-ethyl-N-methylformimidamide] | > 75% | > 80% | > 80% | > 75% | > 80% | > 70% | 75% | 70 to 100% | 70 to 100% | 
8 | CCN(C)C=Nc1cc(C)c(Cc2ccc(F)c(Cl)c2)cc1C [Compound 28, N′-(4-(3-chloro-4-fluorobenzyl)-2,5-dimethylphenyl)-N-ethyl-N-methylformimidamide] | > 75% | > 80% | > 80% | > 75% | > 80% | > 70% | 75% | 70 to 100% | 70 to 100% | 
9 | Cc1cc(N=CN2CCOCC2)c(C)cc1Cc1cccc(Br)c1F [Compound 36, N-(4-(3-bromo-2-fluorobenzyl)-2,5-dimethylphenyl)-1-morpholinomethanimine] | > 75% | > 80% |  |  |  |  |  |  |  | 70 to 100%
10 | CCN(C)C=Nc1cc(C)c(Cc2ccccc2[N+](=O)[O-])cc1C [Compound 50, N′-(2,5-dimethyl-4-(2-nitrobenzyl)phenyl)-N-ethyl-N-methylformimidamide] | > 75% | > 80% | > 80% | > 75% | > 80% | > 70% | 75% |  |  | 70 to 100%
11 | CCN(C)C=Nc1cc(C)c(Cc2ccc(C#N)cc2)cc1Cl [Compound 68, N′-(2-chloro-4-(4-cyanobenzyl)-5-methylphenyl)-N-ethyl-N-methylformimidamide] | > 75% | > 80% |  | > 75% |  | > 70% | 75% |  |  | 70 to 100%
12 | CCN(C)C=Nc1cc(C)c(Cc2cccc([N+](=O)[O-])c2)cc1Cl [Compound 71, N′-(2-chloro-5-methyl-4-(3-nitrobenzyl)phenyl)-N-ethyl-N-methylformimidamide] | > 75% | > 80% | > 80% | > 75% | > 80% | > 70% | 75% |  |  | 70 to 100%
13 | CCN(C)C=Nc1cc(C)c(Cc2ccc(C(F)(F)F)cc2)cc1C [Compound 97, N′-(2,5-dimethyl-4-(4-(trifluoromethyl)benzyl)phenyl)-N-ethyl-N-methylformimidamide] |  |  |  |  |  |  |  |  |  | 70 to 100%
14 | CCN(C)C=Nc1cc(C)c(Cc2ccc(C(F)(F)F)cc2)cc1Cl [Compound 101, N′-(2-chloro-5-methyl-4-(4-(trifluoromethyl)benzyl)phenyl)-N-ethyl-N-methylformimidamide] | > 75% | > 80% | > 80% | > 75% |  |  |  | 70 to 100% | 70 to 100% | 
15 | CCN(C)C=Nc1cc(C)c(Cc2ccccc2C#N)cc1C [Compound 115, N′-(4-(2-cyanobenzyl)-2,5-dimethylphenyl)-N-ethyl-N-methylformimidamide] | > 75% | > 80% |  | > 75% | > 80% |  |  |  |  | 70 to 100%
16 | CCN(C)C=Nc1cc(C)c(Cc2cccc(Cl)c2Cl)cc1Cl [Compound 128, N′-(2-chloro-4-(2,3-dichlorobenzyl)-5-methylphenyl)-N-ethyl-N-methylformimidamide] | > 75% | > 80% | > 80% | > 75% | > 80% | > 70% |  |  |  | 70 to 100%
17 | CCN(C)C=Nc1cc(C)c(Cc2cc(F)ccc2C)cc1C [Compound 157, N-ethyl-N′-(4-(5-fluoro-2-methylbenzyl)-2,5-dimethylphenyl)-N-methylformimidamide] | > 75% | > 80% | > 80% | > 75% | > 80% | > 70% | 75% | 70 to 100% |  | 
18 | CCN(C)C=Nc1cc(F)c(Cc2cccc(F)c2)cc1C [Compound 172, N-ethyl-N′-(5-fluoro-4-(3-fluorobenzyl)-2-methylphenyl)-N-methylformimidamide] | > 75% | > 80% | > 80% | > 75% | > 80% | > 70% | 75% | 70 to 100% |  | 

Reference: patent US11155517B2, “4-substituted phenylamine derivatives and their use to protect crops by fighting undesired phytopathogenic micoorganisms” (PI INDUSTRIES LTD., priority 2016, dated 2021)
